Measured values taken from ChEMBL document CHEMBL1132867, “A rationally designed anticancer drug targeting a unique binding cavity of tubulin” (Bioorg Med Chem Lett, 2000).

Tests used:
SQ20B = experiment: Anti-proliferative activity of compound against human head/neck cancer SQ20B by standard MTT assay; type: functional, cell-based
NALM-6 = experiment: Anti-proliferative activity of compound against human leukemia NALM-6 by standard MTT assay; type: functional, cell-based
U-87 MG = experiment: Anti-proliferative activity of compound against human glioblastoma tumor cell line U87 by standard MTT assay; type: functional, cell-based, U-87MG ATCC
PC-3 = experiment: Anti-proliferative activity of compound against human prostate cancer PC-3 by standard MTT assay; type: functional, cell-based; settings: PC-3, Prostate gland
MDA-MB-231 = experiment: Anti-proliferative activity of compound against human breast cancer MDA-MB-231 by standard MTT assay; type: functional, cell-based

| IC50 (U-87 MG) | IC50 (PC-3) | IC50 (MDA-MB-231) | SMILES | IC50 (SQ20B) | IC50 (NALM-6) |
| --- | --- | --- | --- | --- | --- |
| 107 µM | 171 µM | 7 µM | CCCCCCCCCCCC[C@@H](O)[C@H]1CC[C@H](CO)O1 [WHI-261] | 140 µM | 49 µM |
| > 250 µM | > 250 µM | > 250 µM | OC[C@H]1CC[C@H]([C@@H](O)CO)O1 [WHI-259] | > 250 µM | > 250 µM |
| > 250 µM | > 250 µM | > 250 µM | O=S(=O)(CC[C@@H](O)[C@H]1CC[C@H](COCc2ccccc2)O1)c1ccccc1 [WHI-262] | > 250 µM | > 250 µM |
| > 250 µM | > 250 µM | > 250 µM | C[C@@H](O)[C@H]1CC[C@H](CO)O1 [WHI-260] | > 250 µM | > 250 µM |
